The subject of one series is HCT116 cells. As to the kind of experiment: Growth inhibition / cell viability assay (methylene blue), HCT116. It is filed as cell-based, human. As for the experimental part: Cell feasibility was examined using methylene blue staining. Cells were plated at a rate of 5000/well in 96 well plates (n=3) respectively and treated the next day. Three days after treatment, cells were fixed/stained in methylene blue saturated in 50% ethanol for 30 min at room temperature. Excessive water was used to wash off extra dye from the plates.

The next series has as its system sixty cell lines. As to the kind of experiment: NCI 60 cell five-dose assay. It counts as cell-based. The settings on record: Total Growth Inhibition.
The mark [1] stands for this setting: Homo sapiens, HCT-116, zinc-binding group screen, growth inhibition, HCT116 cells, maximum concentration of 100 μM, read-out: HCT116 IC50.
[2] abbreviates: Homo sapiens, HCT-116, cap group SAR, HCT116 cell line, maximum concentration of 40 μM, read-out: IC50.
Setting [3] is: Homo sapiens, HCT-116, read-out: IC50 (μM) HCT116.
The mark [4] stands for this setting: zinc-binding group screen, growth inhibition, HCT116 cells, maximum concentration of 100 μM.

Read-outs that look alike come from different tables or passages of the source.

Data on 31 molecules can be found in patent US20240360089A1, “Metabolically Stable HDAC Inhibitors with Trifluoromethylpyruvamide as Metal-Binding Group” (The University of Toledo, priority 2023, published 2024).

The term IC50 denotes the midpoint of a concentration-inhibition curve. What is called TGI is the concentration giving total growth inhibition. The term melting point denotes the temperature of the solid-liquid transition.

On to `CC(=O)C(=O)NCCCCCC(=O)Nc1ccccc1`, for which the IC50 with HCT116 cells (setting [1]) is above 100 µM.
Same read-out and setting: then `OC(c1c(F)c(F)c(-n2cc(-c3ccccc3)nn2)c(F)c1F)C(F)(F)F` (stereo not shown), with above 100 µM.
Regarding `O=C(CCCCCCNC(=O)C(O)(O)C(F)(F)F)Nc1ccc(Cl)cc1` [Compound 64, N-(4-chlorophenyl)-7-(3,3,3-trifluoro-2,2-dihydroxypropanamido)heptanamide], in the series with sixty cell lines, the “TGI” value came to 26.92 µM.
Consider `NC(=O)C(=O)NCCCCC(=O)Nc1ccccc1`, for which the IC50 in the series on HCT116 cells (setting [1]) is above 100 µM.
Molecule `O=C(CCCCCCNC(=O)C(O)(O)C(F)(F)F)Nc1ccccc1Br` [Compound 75, N-(2-bromophenyl)-7-(3,3,3-trifluoro-2,2-dihydroxypropanamido)heptanamide] registered a melting point of 108 to 113 °C. Besides, in the series on HCT116 cells (setting [2]), the IC50 is 14.5 µM.
Take `O=C(CCCCCCNC(=O)C(O)C(F)(F)F)Nc1nccs1` (stereo not shown) [drawing 78]: the IC50 in the series with HCT116 cells (setting [2]) is above 40 µM.
`COc1cccc(NC(=O)CCCCCCNC(=O)C(O)(O)C(F)(F)F)c1` [Compound 59, N-(3-methoxyphenyl)-7-(3,3,3-trifluoro-2,2-dihydroxypropanamido)heptanamide] had a melting point of 120 to 125 °C. The half-inhibitory concentration (IC50) in the series with HCT116 cells (setting [2]) was 6.11 µM.
`C/C(=N\O)C(=O)NCCCCCC(=O)Nc1ccccc1`: the IC50 in the series with HCT116 cells (setting [1]) is above 100 µM.
Take `C/C(=N\O)C(=O)NCCCCC(=O)Nc1ccccc1`: the IC50 with HCT116 cells (setting [1]) was above 100 µM.
Molecule `O=C(CCCCCCNC(=O)C(O)(O)C(F)(F)F)Nc1ncc(-c2ccc(O)cc2)s1` [Compound 86, N-(5-(4-hydroxyphenyl)thiazol-2-yl)-7-(3,3,3-trifluoro-2,2-dihydroxypropanamido) heptanamide] registered a melting point of 145 to 150 °C.
As to `OC(O)(c1c(F)c(F)c(-n2cc(-c3ccccc3)nn2)c(F)c1F)C(F)(F)F`, in the series with HCT116 cells (setting [1]), the IC50 was above 100 µM.
In turn, `COc1ccccc1NC(=O)CCCCCCNC(=O)C(O)(O)C(F)(F)F` [Compound 66, N-(2-methoxyphenyl)-7-(3,3,3-trifluoro-2,2-dihydroxypropanamido)heptanamide] had a melting point of 105 to 110 °C. Besides, the IC50 with HCT116 cells (setting [2]) stood at 10.1 µM.
`O=C(CCCCCCNC(=O)C(O)C(F)(F)F)Nc1nccs1` (stereo not shown) [Compound 92]: the IC50 result in the series with HCT116 cells (cap group SAR, HCT116 cell line, maximum concentration of 40 μM) is “inactive”.
Molecule `O=C(CCCCCCNC(=O)C(O)(O)C(F)(F)F)Nc1ccccc1` [Compound 10c, N-phenyl-7-(3,3,3-trifluoro-2,2-dihydroxypropanamido)heptanamide] displayed a melting point of 123 to 128 °C. In addition, in the series on HCT116 cells (setting [3]), the IC50 turned out to be 9.14 µM.
On to `CC(=O)C(=O)NCCCCC(=O)Nc1ccccc1`, for which the IC50 in the series with HCT116 cells (setting [1]) was above 100 µM.
Take `O=C(CCCCCNC(=O)c1cc(=O)c(O)co1)Nc1ccccc1`: in the series on HCT116 cells (setting [1]), the IC50 was above 100 µM.
Consider `O=C(CCCCCCNC(=O)C(O)(O)C(F)(F)F)Nc1nc(-c2ccccc2)c(-c2ccccc2)s1` [Compound 68, N-(4,5-diphenylthiazol-2-yl)-7-(3,3,3-trifluoro-2,2-dihydroxypropanamido)heptanamide], for which the melting point fell in the range of 143 to 148 °C. For the same molecule, the IC50 in the series on HCT116 cells (setting [2]) is 29.9 µM.
For the molecule `O=C(CCCCCCC(O)C(F)(F)F)Nc1ccccc1` (stereo not shown), the IC50 with HCT116 cells (setting [2]) is above 40 µM.
As to `O=C(CCCCCCCNC(=O)c1cc(=O)c(O)co1)Nc1ccccc1` [drawing 33], the concentration for half-maximal inhibition (IC50) in the series on HCT116 cells (setting [1]) is above 100 µM.
`O=C(CCCCCNC(=O)c1ccc[nH]1)Nc1ccccc1`: the IC50 in the series with HCT116 cells (setting [1]) is above 100 µM.
As for `CCOc1ccc(-c2cnc(NC(=O)CCCCCCNC(=O)C(O)(O)C(F)(F)F)s2)cc1` [Compound 87, N-(5-(4-ethoxyphenyl)thiazol-2-yl)-7-(3,3,3-trifluoro-2,2-dihydroxypropanamido)heptanamide], the melting point is 138 to 143 °C. Also, in the series on HCT116 cells (setting [2]), the IC50 amounted to 4.05 µM.
The molecule `O=C(CCCCCNC(=O)C(O)(O)C(F)(F)F)Nc1ccccc1` [Compound 10b, N-phenyl-6-(3,3,3-trifluoro-2,2-dihydroxypropanamido)hexanamide] had a melting point of 103 to 108 °C. In addition, the half-maximal inhibitory concentration (IC50) in the series on HCT116 cells (setting [3]) is 54.4 µM. In addition, the IC50 in the series with HCT116 cells (setting [1]) was determined as 54.4 µM. For the same molecule, the “HCT116 IC50” value with HCT116 cells (setting [4]) was “demonstrated antiproliferative activity”.
For `O=C(CCCCNC(=O)c1cc(=O)c(O)co1)Nc1ccccc1`, the IC50 in the series with HCT116 cells (setting [1]) is above 100 µM.
On the same count and under the same terms, then `NC(=O)C(=O)NCCCCCC(=O)Nc1ccccc1`, with above 100 µM; and `C/C(=N\O)C(=O)NCCCCCCC(=O)Nc1ccccc1`, with above 100 µM; and `O=C(CCCCCCNC(=O)c1cc(=O)c(O)co1)Nc1ccccc1`, with above 100 µM.
Turning to `O=C(CCCCCCNC(=O)C(O)(O)C(F)(F)F)Nc1ccc(Br)cc1` [Compound 65, N-(4-bromophenyl)-7-(3,3,3-trifluoro-2,2-dihydroxypropanamido)heptanamide], in the series on sixty cell lines, the “TGI” value stood at 20.89 µM.
Consider `O=C(CCCCCCCNC(=O)c1cc(=O)c(O)co1)Nc1ccccc1` [Compound 89], for which the “HCT116 IC50” value with HCT116 cells (setting [4]) is “inactive”.
For `O=C(CCCCCCNC(=O)C(O)(O)C(F)(F)F)Nc1ccc(-c2ccccc2)cc1` [Compound 69, N-([1,1′-biphenyl]-4-yl)-7-(3,3,3-trifluoro-2,2-dihydroxypropanamido)heptanamide], the “TGI” value in the series on sixty cell lines is 15.14 µM.
With `CC(=O)C(=O)NCCCCCCC(=O)Nc1ccccc1`, the IC50 in the series on HCT116 cells (setting [1]) is above 100 µM.
Regarding `NC(=O)C(=O)NCCCCCCCC(=O)Nc1ccccc1`, the IC50 in the series on HCT116 cells (setting [1]) is above 100 µM.
